Results as given in ChEMBL document CHEMBL1201862, “PubChem BioAssay data set” (2004).
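Test compounds were applied to cells in 96-well plates for 48 hours at 5 doses. At the GI50, growth is halved.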 Calls of active or inactive are those of the source. Rule as the data show it: active = GI50 up to about 1.1 µM and inactive = higher.

Experiments:
Assay in all cases: NCI tumour cell line growth inhibition, 48 h
NCI-H226 = test system: NCI-H226
SW-620 = test system: SW-620
HCT-116 = test system: HCT-116
COLO 205 = test system: COLO 205
CCRF-CEM = test system: CCRF-CEM
SNB-75 = test system: SNB-75
SK-MEL-5 = test system: SK-MEL-5
LOX IMVI = test system: LOX IMVI
NCI-H460 = test system: NCI-H460
M14 = test system: M14
SF-268 = test system: SF-268
ACHN = test system: ACHN
EKVX = test system: EKVX
BT-549 = test system: BT-549
MDA-N = test system: MDA-N
786-0 = test system: 786-0
OVCAR-4 = test system: OVCAR-4
SN12C = test system: SN12C
OVCAR-5 = test system: OVCAR-5
T47D = test system: T47D
HCC 2998 = test system: HCC 2998
NCI-H522 = test system: NCI-H522
RPMI-8226 = test system: RPMI-8226
UACC-257 = test system: UACC-257
SF-539 = test system: SF-539
NCI/ADR-RES = test system: NCI/ADR-RES
U-251 = test system: U-251
OVCAR-3 = test system: OVCAR-3
PC-3 = test system: PC-3
SK-OV-3 = test system: SK-OV-3
RXF 393 = test system: RXF 393
KM12 = test system: KM12
A549 = test system: A549
MDA-MB-435 = test system: MDA-MB-435
UO-31 = test system: UO-31
SNB-19 = test system: SNB-19
K562 = test system: K562
OVCAR-8 = test system: OVCAR-8
Malme-3M = test system: Malme-3M
DU-145 = test system: DU-145
SK-MEL-28 = test system: SK-MEL-28
HOP-62 = test system: HOP-62
UACC-62 = test system: UACC-62
MCF7 = test system: MCF7
Hs-578T = test system: Hs-578T
TK-10 = test system: TK-10
SK-MEL-2 = test system: SK-MEL-2
CAKI-1 = test system: CAKI-1
SF-295 = test system: SF-295
HCT-15 = test system: HCT-15
MDA-MB-231 = test system: MDA-MB-231
A498 = test system: A498
HT-29 = test system: HT-29
NCI-H23 = test system: NCI-H23
MOLT-4 = test system: MOLT-4
HOP-92 = test system: HOP-92
IGROV-1 = test system: IGROV-1
SR = test system: SR
HL-60 = test system: HL-60

## COc1cc2c[n+](C)c3c4cc(OC)c(OC)cc4c(OC)cc3c2cc1OC
NCI-H226
  GI50: 1.36 µM (inactive)
SW-620
  GI50: 7.69 µM (inactive)
HCT-116
  GI50: 2.92 µM (inactive)
COLO 205
  GI50: 1.2 µM (inactive)
CCRF-CEM
  GI50: 6.1 µM (inactive)
SNB-75
  GI50: 7.91 µM (inactive)
SK-MEL-5
  GI50: 2.77 µM (inactive)
LOX IMVI
  GI50: 16.7 µM (inactive)
NCI-H460
  GI50: 17.4 µM (inactive)
M14
  GI50: 30.5 µM (inactive)
SF-268
  GI50: 0.0689 µM (active)
ACHN
  GI50: > 100 µM (inactive)
EKVX
  GI50: > 74.1 µM (inactive)
BT-549
  GI50: 3.92 µM (inactive)
MDA-N
  GI50: 6.32 µM (inactive)
786-0
  GI50: 5.43 µM (inactive)
OVCAR-4
  GI50: 8.02 µM (inactive)
SN12C
  GI50: 0.188 µM (active)
OVCAR-5
  GI50: > 100 µM (inactive)
T47D
  GI50: 1.85 µM (inactive)
HCC 2998
  GI50: 6.01 µM (inactive)
NCI-H522
  GI50: 0.0359 µM (active)
RPMI-8226
  GI50: 16.4 µM (inactive)
UACC-257
  GI50: 2.86 µM (inactive)
SF-539
  GI50: 1.87 µM (inactive)
NCI/ADR-RES
  GI50: > 100 µM (inactive)
U-251
  GI50: 2.38 µM (inactive)
OVCAR-3
  GI50: 2.34 µM (inactive)
PC-3
  GI50: 12.2 µM (inactive)
SK-OV-3
  GI50: 42.2 µM (inactive)
RXF 393
  GI50: 8.83 µM (inactive)
KM12
  GI50: 5.27 µM (inactive)
A549
  GI50: > 65.3 µM (inactive)
MDA-MB-435
  GI50: 11.2 µM (inactive)
UO-31
  GI50: > 100 µM (inactive)
SNB-19
  GI50: 1.03 µM (active)
K562
  GI50: 4.03 µM (inactive)
OVCAR-8
  GI50: 0.371 µM (active)
Malme-3M
  GI50: 2.06 µM (inactive)
DU-145
  GI50: 8.45 µM (inactive)
SK-MEL-28
  GI50: 6.43 µM (inactive)
HOP-62
  GI50: 16.4 µM (inactive)
UACC-62
  GI50: 6.27 µM (inactive)
MCF7
  GI50: 2.17 µM (inactive)
Hs-578T
  GI50: 1.44 µM (inactive)
TK-10
  GI50: > 100 µM (inactive)
SK-MEL-2
  GI50: 15.8 µM (inactive)
CAKI-1
  GI50: > 100 µM (inactive)
SF-295
  GI50: 20 µM (inactive)
HCT-15
  GI50: > 100 µM
MDA-MB-231
  GI50: 0.53 µM (active)
A498
  GI50: > 100 µM (inactive)
HT-29
  GI50: 5.48 µM (inactive)
NCI-H23
  GI50: 5.58 µM (inactive)

## COc1c(Cl)nc2ccccc2c1N=[N+]=[N-]
MOLT-4
  GI50: 19.2 µM (inactive)
SW-620
  GI50: > 100 µM (inactive)
HCT-116
  GI50: 52.7 µM (inactive)
COLO 205
  GI50: > 100 µM (inactive)
CCRF-CEM
  GI50: 88.9 µM (inactive)
SNB-75
  GI50: 63 µM (inactive)
SK-MEL-5
  GI50: 40.5 µM (inactive)
LOX IMVI
  GI50: 48.6 µM (inactive)
NCI-H460
  GI50: > 100 µM (inactive)
M14
  GI50: > 100 µM (inactive)
SF-268
  GI50: 28.7 µM (inactive)
ACHN
  GI50: 43.4 µM (inactive)
BT-549
  GI50: 19.8 µM (inactive)
MDA-N
  GI50: > 100 µM (inactive)
786-0
  GI50: > 100 µM (inactive)
OVCAR-4
  GI50: > 100 µM (inactive)
SN12C
  GI50: 92 µM (inactive)
OVCAR-5
  GI50: > 100 µM (inactive)
T47D
  GI50: 85.7 µM (inactive)
HCC 2998
  GI50: > 100 µM (inactive)
RPMI-8226
  GI50: 95.7 µM (inactive)
HOP-92
  GI50: 22.2 µM (inactive)
IGROV-1
  GI50: 49.5 µM (inactive)
SR
  GI50: 80 µM (inactive)
UACC-257
  GI50: > 100 µM (inactive)
SF-539
  GI50: 71.9 µM (inactive)
U-251
  GI50: > 100 µM (inactive)
OVCAR-3
  GI50: > 100 µM (inactive)
PC-3
  GI50: 46 µM (inactive)
SK-OV-3
  GI50: > 100 µM (inactive)
RXF 393
  GI50: 30.1 µM (inactive)
KM12
  GI50: > 100 µM (inactive)
A549
  GI50: > 100 µM (inactive)
MDA-MB-435
  GI50: > 100 µM (inactive)
UO-31
  GI50: 17.3 µM (inactive)
SNB-19
  GI50: > 100 µM (inactive)
K562
  GI50: 83.9 µM (inactive)
Malme-3M
  GI50: > 100 µM (inactive)
DU-145
  GI50: > 100 µM (inactive)
SK-MEL-28
  GI50: > 100 µM (inactive)
HOP-62
  GI50: 39.7 µM (inactive)
UACC-62
  GI50: 54.2 µM (inactive)
HL-60
  GI50: 53.3 µM (inactive)
MCF7
  GI50: > 100 µM (inactive)
Hs-578T
  GI50: 28.3 µM (inactive)
TK-10
  GI50: 70 µM (inactive)
CAKI-1
  GI50: 49.4 µM (inactive)
SF-295
  GI50: > 100 µM (inactive)
MDA-MB-231
  GI50: 77.1 µM (inactive)
A498
  GI50: 12.4 µM (inactive)
HT-29
  GI50: > 100 µM (inactive)
NCI-H23
  GI50: 92.7 µM (inactive)
